Experimental data taken from EP0587396A1, “Use of hypoxoside derivatives for the treatment of viral infections” (VIROSTAT (NA) NV, priority 1992, dated 1994).
Like-named read-outs stand apart in the source and are kept apart here.

How the values were obtained:
[1] = test system: human immunodeficiency virus type 1 (HIV-1); experiment: Inhibition of HIV-1 proliferation in PHA-activated human PBL's (p24 core protein by Sandwich ELISA, HIV RNA by labelled DNA probe hybridization); format: cell-based; conditions: for inhibition of p24 core protein production: 10 ng/mℓ
Method: Compounds I - XXVIII were subjected to in vitro testing for inhibition of human immunodeficiency virus type 1 (HIV-1) proliferation as follows:
Human peripheral blood lymphocytes (PBL's) obtained by density gradient centrifugation of blood from healthy volunteers at a blood bank were pooled and used for the propagation of HIV-1 in vitro.
The PBL's were polyclonally activated with phytohaemagglutinin (PHA) and subjected to quality controls whereby their viability was tested with Trypan blue exclusion and the expression of activation antigens, CD4⁺ and CD25⁺ was measured by immunofluorescence. Prior to adding the test substance, the activated PBL's were exposed to a standardized titre of HIV-1 virus and after incubation for 60 minutes the cells were washed twice and plated into microtitre plates at a concentration of 2X10⁶ cells/well. The medium contained interleukin-2 and in control wells the virus produced between 50 and 100 ng/mℓ of p24 core protein on day 4. The test substance was added to these cultures either in water or dimethyl sulphoxide (DMSO) depending on solubility characteristics. The final DMSO concentration, when used, was always 1% v/v.
HIV replication was measured as the production of p24 core protein and the production of HIV RNA on days 2, 3 and 4, or on days 3, 4, 5 and 6. Core protein p24 was measured using 'Sandwich ELISA' technology using inter alia a monoclonal antibody against p24 core protein. The HIV RNA was measured using a specific labelled DNA probe against HIV RNA and the process of hybridization.
Results were expressed as percent inhibition of HIV-1 p24 core protein production or RNA production on days 3, 4 or 6.
In each test, cells were also exposed to HIV-1 and 3'-azido-3'-deoxythymidine (also known as Zidovudine or AZT) at 100, 10, 1 and 0.1 ng/mℓ. This was a positive control and compounds tested were compared to the inhibitory effect of 10 ng/mℓ AZT.
In all of the following Tables, percentage inhibition refers to inhibition of p24 core protein production and HIV RNA production relative to infected controls. Percentage AZT inhibition refers to inhibition caused by 10 ng/mℓ AZT at the end of the experiment, i.e. after 4 or 6 days.

[2] = test system: CD4⁺ cells; conditions: standard doses (250 mg/4 hours) and reduced doses (100 mg/4 hours) for 30 months; Fisch et al; cited from earlier work
[3] = Toxicity: lymphocyte proliferation assay with MTT in the HIV-1 infected PBL cultures; format: cell-based; conditions: human, pbls
Method: Possible toxic effects of the test substances were measured by viability testing using Trypan blue or a proliferation assay using3-(4,5-dimethylthiazol-2-yl)-2,5-diphenyl-2H-tetrazolium bromide (MTT) on day 4 or day 6 after initiation of the experiment (Borenfreund et al: Toxicol. In Vitro, 1988, 2, 1-6).
The toxicity of the drug was expressed as a percentage inhibition of lymphocyte proliferation as measured with MTT and compared with controls receiving the virus but no drug.

Cc1cn([C@H]2C[C@H](N=[N+]=[N-])[C@@H](CO)O2)c(=O)[nH]c1=O [AZT, 3'-azido-3'-deoxythymidine, reference compound]
inhibition of p24 core protein production ([1]; positive control of Table 2 (6 days, standard titre)): 20% | inhibition of p24 core protein production ([1]; positive control of Table 4 (after 3 days)): 50% | inhibition of p24 core protein production ([1]; positive control of Table 5 (after 6 days)): 50% | inhibition of p24 core protein production ([1]; positive control of Table 6 (6 days, standard viral titre)): 20% | inhibition of p24 core protein production ([1]; positive control of Table 8 (3 days incubation)): 50% | inhibition of p24 core protein production ([1]; positive control of Table 12 (3 days incubation)): 50% | inhibition at 0.01 µg/mL ([1]; Human immunodeficiency virus 1, 72 h, read-out: inhibition of HIV-RNA production, 10 ng/mℓ, positive control of Table 4 (after 3 days)): 46% | inhibition at 0.01 µg/mL ([1]; Human immunodeficiency virus 1, 72 h, read-out: inhibition of HIV-RNA production, 10 ng/mℓ, positive control of Table 8 (3 days incubation)): 46% | inhibition at 0.01 µg/mL ([1]; Human immunodeficiency virus 1, 72 h, read-out: inhibition of HIV-RNA production, 10 ng/mℓ, positive control of Table 12 (3 days incubation)): 46% | inhibition at 0.01 µg/mL ([1]; Human immunodeficiency virus 1, 96 h, read-out: inhibition of HIV RNA production, 10 ng/mℓ, positive control of the crude extract test (4 days)): 96% | inhibition at 0.01 µg/mL ([1]; Human immunodeficiency virus 1, 96 h, read-out: inhibition of HIV-RNA production, 10 ng/mℓ, day 4, positive control of Table 13): 100% | inhibition at 0.01 µg/mL ([1]; Human immunodeficiency virus 1, 96 h, read-out: inhibition of HIV-RNA production, 10 ng/mℓ, positive control of Table 11 (4 days)): 97% | inhibition at 0.01 µg/mL ([1]; Human immunodeficiency virus 1, 144 h, read-out: inhibition of HIV-RNA production, 10 ng/mℓ, day 6, positive control of Table 13): 100% | inhibition at 0.01 µg/mL ([1]; Human immunodeficiency virus 1, 144 h, read-out: inhibition of HIV-RNA production, 10 ng/mℓ, positive control of Table 2 (6 days, standard titre)): 68% | inhibition at 0.01 µg/mL ([1]; Human immunodeficiency virus 1, 144 h, read-out: inhibition of HIV-RNA production, 10 ng/mℓ, positive control of Table 5 (after 6 days)): 46% | inhibition at 0.01 µg/mL ([1]; Human immunodeficiency virus 1, 144 h, read-out: inhibition of HIV-RNA production, 10 ng/mℓ, positive control of Table 6 (6 days, standard viral titre)): 68% | inhibition at 0.01 µg/mL ([1]; Human immunodeficiency virus 1, 144 h, read-out: inhibition of HIV-RNA production, 10 ng/mℓ, positive control of Table 8 continued (6 days incubation)): 92% | inhibition at 0.01 µg/mL ([1]; Human immunodeficiency virus 1, 144 h, read-out: inhibition of HIV-RNA production, 10 ng/mℓ, positive control of Table 9 (6 days)): 92% | inhibition at 0.01 µg/mL ([1]; Human immunodeficiency virus 1, 144 h, read-out: inhibition of HIV-RNA production, 10 ng/mℓ, positive control of Table 10 (6 days)): 92% | inhibition at 0.01 µg/mL ([1]; Human immunodeficiency virus 1, read-out: inhibition of HIV-RNA production, 10 ng/mℓ, positive control of Table 7 (ten-fold dilution of standard viral titre)): 99% | inhibition at 0.01 µg/mL ([1]; Human immunodeficiency virus 1, read-out: inhibition of HIV-RNA, 10 ng/mℓ, positive control of Table 3 (viral titre lowered ten-fold)): 99% | transient mean increase of CD4⁺ cells [2]: 25 cells/mm³ of blood

O=S(=O)(O)Oc1ccc(C#CC/C=C/c2ccc(OS(=O)(=O)O)cc2)cc1 [Compound XVIII]
% inhibition:p24 core protein ([1]; 50 µg/mℓ, after 6 days): 79% | inhibition at 50 µg/mL ([1]; Human immunodeficiency virus 1, 144 h, read-out: % inhibition:HIV-RNA, 50 µg/mℓ, after 6 days): 87% | inhibition at 100 µg/mL ([1]; Human immunodeficiency virus 1, 144 h, read-out: % inhibition:HIV-RNA, 100 µg/mℓ, after 6 days): 100% | viability ([3]; 50 µg/mℓ, Table 10 (6 days), read-out: Proliferation as a percentage of control value): 63% | viability ([3]; 100 µg/mℓ, Table 10 (6 days), read-out: Proliferation as a percentage of control value): 50%

OC[C@H]1O[C@@H](Oc2ccc(C#CC/C=C/c3ccc(O[C@@H]4O[C@H](CO)[C@@H](O)[C@H](O)[C@H]4O)c(O)c3)cc2O)[C@H](O)[C@@H](O)[C@@H]1O [Compound V, E-1,5-bis(3'-hydroxy-4'-O-β-D-glucopyranosylphenyl)pent-4-en-1-yne]
% inhibition:p24 core protein ([1]; 6.25 µg/mℓ, dissolved in water, after 6 days, standard titre of HIV-1): 5% | % inhibition:p24 core protein ([1]; 12.5 µg/mℓ, dissolved in water, after 6 days, standard titre of HIV-1): 5% | % inhibition:p24 core protein ([1]; 25 µg/mℓ, dissolved in water, after 6 days, standard titre of HIV-1): 9% | % inhibition:p24 core protein ([1]; 25 µg/ℓ, viral titre lowered ten-fold): 90% | inhibition at 6.25 µg/mL ([1]; Human immunodeficiency virus 1, 144 h, read-out: % inhibition: HIV-RNA, 6.25 µg/mℓ, dissolved in water, after 6 days, standard titre of HIV-1): 42% | inhibition at 12.5 µg/mL ([1]; Human immunodeficiency virus 1, 144 h, read-out: % inhibition: HIV-RNA, 12.5 µg/mℓ, dissolved in water, after 6 days, standard titre of HIV-1): 65% | inhibition at 25 µg/mL ([1]; Human immunodeficiency virus 1, 144 h, read-out: % inhibition: HIV-RNA, 25 µg/mℓ, dissolved in water, after 6 days, standard titre of HIV-1): 83% | inhibition at 50 µg/mL ([1]; Human immunodeficiency virus 1, 144 h, read-out: % inhibition: HIV-RNA, 50 µg/mℓ, dissolved in water, after 6 days, standard titre of HIV-1): 100% | inhibition at 0.00625 µg/mL ([1]; Human immunodeficiency virus 1, read-out: % inhibition:HIV-RNA, 6.25 µg/ℓ, viral titre lowered ten-fold): 0% | inhibition at 0.0125 µg/mL ([1]; Human immunodeficiency virus 1, read-out: % inhibition:HIV-RNA, 12.5 µg/ℓ, viral titre lowered ten-fold): 11% | inhibition at 0.025 µg/mL ([1]; Human immunodeficiency virus 1, read-out: % inhibition:HIV-RNA, 25 µg/ℓ, viral titre lowered ten-fold): 97% | inhibition at 0.05 µg/mL ([1]; Human immunodeficiency virus 1, read-out: % inhibition:HIV-RNA, 50 µg/ℓ, viral titre lowered ten-fold): 99% | viability ([3]; 6.25 µg/mℓ, dissolved in water, standard titre of HIV-1, read-out: Proliferation as a percentage of control value): 94% | viability ([3]; 6.25 µg/ℓ, viral titre lowered ten-fold, read-out: Proliferation as a percentage of control value): 94% | viability ([3]; 12.5 µg/mℓ, dissolved in water, standard titre of HIV-1, read-out: Proliferation as a percentage of control value): 94% | viability ([3]; 12.5 µg/ℓ, viral titre lowered ten-fold, read-out: Proliferation as a percentage of control value): 94% | viability ([3]; 25 µg/mℓ, dissolved in water, standard titre of HIV-1, read-out: Proliferation as a percentage of control value): 93% | viability ([3]; 25 µg/ℓ, viral titre lowered ten-fold, read-out: Proliferation as a percentage of control value): 93% | viability ([3]; 50 µg/mℓ, dissolved in water, standard titre of HIV-1, read-out: Proliferation as a percentage of control value): 82% | viability ([3]; 50 µg/ℓ, viral titre lowered ten-fold, read-out: Proliferation as a percentage of control value): 82%
